# What was measured:
# TRADD-N and TRAF2-C = target: T1, TRADD-N and TRAF2-C (Homo sapiens, UniProt Q15628); experiment: NanoBiT protein-protein interaction assay TRADD-N / TRAF2-C; assay type: cell-based
# T1 construct: expression constructs encoding Flag-TRADD-N(1-179) and HA-TRADD-C(180-312); expressed in transfected cells; host or cells: HEK293T
# Description: Mean ±s.d. from quadruplicates (n=4).
# The Nano-Glo Live Cell assay kit (Promega) was used as follows: HEK293T cells were seeded at 7.5×10^3 cells per well in a white, clear-bottom 96-well plate 12 h before transfection (10 ng LgBiT-fused construct and 10 ng SmBiT-fused construct). After 24 h incubation, medium was removed and replaced with 100 μl Opti-MEM medium for 1 h at 37C. The Nano-Glo reagent was prepared as per manufacturer's instructions and added to each well immediately before the luminescence reading was taken. Luminescence was measured at 1 min intervals for 10 min on a plate reader and reported as relative light units (RLU). For quantitative comparison of LgBiT-SmBiT interactions, the peak values at the 2-3 min time point were used. Concentration of compounds used in NanoBiT assay: 10 μM (Apt-1, ICCB-19 or ICCB-19i).
# panel of 97 kinases = experiment: KINOMEscan profiling; assay type: binding; details: 10 μM
# Description: FIG. 5d depicts the KINOMEscan profiling of Apt-1 (10 μM) against a panel of 97 kinases. Binding interactions reported as % Ctrl, where lower numbers indicate stronger hits. Negative control=DMSO (100% Ctrl); positive control=control compound (0% Ctrl); 0<% Ctrl <0.1 Very Strong; 0.1≤% Ctrl <1 Strong; 1≤% Ctrl <10 Medium; […] Weak; % Ctrl ≥35 No effects. No significant binding of Apt-1 to this panel of 97 kinases was detected. CellTiter-Glo was used to determine cell survival in (a), (b), and (c).
# KINOMEscan profiling was used to assess the interaction of Apt-1 with a panel of 97 kinases as a custom service (DiscoverX/Eurofins, San Diego, Calif. USA). Briefly, DNA-tagged recombinant kinases were produced in E. coli. The assay plates with kinases were incubated at room temperature with shaking for 1 h and the affinity beads were washed with wash buffer (1×PBS, 0.05% Tween 20). The beads were then re-suspended in elution buffer. The kinase concentration in the eluates was measured by qPCR. Apt-1 were screened at […], and the results for primary screen binding interactions are reported as % Ctrl, where lower numbers indicate stronger hits in the matrix.
# T1 sequence (Q15628 1-179): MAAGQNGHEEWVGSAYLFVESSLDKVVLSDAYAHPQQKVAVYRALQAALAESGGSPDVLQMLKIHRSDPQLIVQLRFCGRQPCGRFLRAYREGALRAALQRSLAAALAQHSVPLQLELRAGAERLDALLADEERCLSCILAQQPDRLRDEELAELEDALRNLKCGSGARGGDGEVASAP
smiles,measurement,setting,value
CN1CCN=C1SC(C(=O)NC1CCCCCC1)c1ccccc1 (centres unmarked) [Compound 30],direct binding of TRADD-N and TRAF2 (NanoBiT),TRADD-N and TRAF2-C,dose-dependently reduced
same,off-target effects on 97 kinase targets,panel of 97 kinases,no significant off-target effects

# Source: patent US20230219898A1, “COMPOUNDS AND METHODS FOR BLOCKING APOPTOSIS AND INDUCING AUTOPHAGY” (President and Fellows of Harvard College, priority 2020, published 2023)
